Reference: patent publication US10246401B2, “Crystalline form of chlorogenic acid and preparation method thereof” (SICHUAN JIUZHANG BIOLOGICAL SCIENCE AND TECHNOLOGY CO., LTD., priority 2014, dated 2019)
Several values for one entry are separate records, joined by “and”; a condition that tells them apart may be missing. Equal values may be shown once.

Legend:
[1] = Long-term stability test of chlorogenic acid crystal form; assay type: physicochemical
[2] = Residual solvent by gas chromatography (internal standard method); assay type: physicochemical; settings: Chinese Pharmacopoeia limit 0.5%
Description: […]; an appropriate amount of ethyl acetate was taken, weighed precisely, and N,N-dimethylformamide was added to prepare the solution containing 5 mg of ethyl acetate per 1 ml. 1 ml of the solution was accurately pipetted into a 10 ml volumetric flask, and 1 ml of the internal standard solution was precisely added, and diluted by adding N,N-dimethylformamide to the volume, and agitated to obtain the reference solution; 0.5 g of the chlorogenic acid crystal form prepared by Examples 1 and 2, and about 0.5 g of respective raw materials of each example, were taken and weighed precisely, then transferred to a 10 ml volumetric flask. 1 ml of the internal standard solution was added precisely, diluted with N,N-dimethylformamide to volume, and agitated, to obtain the testing solution. According to the gas chromatography method (the appendix V E of the second part of the Chinese Pharmacopoeia 2010), 30 m capillary column was used with 50% polyphenyl methylsiloxane as the stationary liquid, and its coating thickness was 1 μm. The column temperature was kept at 80° C. taking 1 μl of the reference solution and 1 μl of the testing solution were accurately taken, respectively, and injected into the gas chromatograph, to record the chromatogram. Calculating with the height ratio of peaks in accordance with internal standard method, the results are as follows: […]

[3] = 0-48 months, 18±2° C., relative humidity 60±10%
[4] = 0 month, 18±2° C., relative humidity 60±10%
[5] = 3 months, 18±2° C., relative humidity 60±10%
[6] = 6 months, 18±2° C., relative humidity 60±10%
[7] = 9 months, 18±2° C., relative humidity 60±10%
[8] = 12 months, 18±2° C., relative humidity 60±10%
[9] = 18 months, 18±2° C., relative humidity 60±10%
[10] = 24 months, 18±2° C., relative humidity 60±10%
[11] = 36 months, 18±2° C., relative humidity 60±10%
[12] = 48 months, 18±2° C., relative humidity 60±10%

O=C(/C=C/c1ccc(O)c(O)c1)O[C@@H]1C[C@](O)(C(=O)O)C[C@@H](O)[C@H]1O [Example 1, 3-O-caffeoylquinnic acid]
Content of chlorogenic acid over the long-term stability test [1, 3]: above 98%
Stability (overall conclusion of long-term test) [1, 3]: good stability
Appearance [1, 4]: almost white
Content (%) [1, 4]: 99.50% and 99.56% and 99.49%
Loss on drying (%) [1, 4]: 2.32% and 2.31% and 2.29%
Related substances (%) Other 2 [1, 4]: 0.140% and 0.137% and 0.144%
Related substances (%) Other 3 [1, 4]: 0.205% and 0.214% and 0.218%
Related substances (%) Other 4 [1, 4]: 0.045% and 0.049% and 0.048%
Related substances In total (%) [1, 4]: 0.488% and 0.499% and 0.511%
Appearance [1, 5]: almost white
Content (%) [1, 5]: 99.47% and 99.41% and 99.43%
Loss on drying (%) [1, 5]: 2.30% and 2.31% and 2.29%
Related substances (%) Other 2 [1, 5]: 0.142% and 0.151% and 0.148%
Related substances (%) Other 3 [1, 5]: 0.230% and 0.237% and 0.228%
Related substances (%) Other 4 [1, 5]: 0.049% and 0.050% and 0.046%
Related substances In total (%) [1, 5]: 0.523% and 0.543% and 0.525%
Appearance [1, 6]: almost white
Content (%) [1, 6]: 99.44% and 99.38% and 99.42%
Loss on drying (%) [1, 6]: 2.31% and 2.29% and 2.28%
Related substances (%) Other 2 [1, 6]: 0.146% and 0.154% and 0.155%
Related substances (%) Other 3 [1, 6]: 0.234% and 0.240% and 0.231%
Related substances (%) Other 4 [1, 6]: 0.054% and 0.056% and 0.053%
Related substances In total (%) [1, 6]: 0.541% and 0.563% and 0.548%
Appearance [1, 7]: almost white
Content (%) [1, 7]: 99.38% and 99.30% and 99.33%
Loss on drying (%) [1, 7]: 2.32% and 2.31%
Related substances (%) Other 2 [1, 7]: 0.162% and 0.167% and 0.165%
Related substances (%) Other 3 [1, 7]: 0.255% and 0.261% and 0.252%
Related substances (%) Other 4 [1, 7]: 0.058% and 0.061% and 0.060%
Related substances In total (%) [1, 7]: 0.591% and 0.611% and 0.595%
Appearance [1, 8]: almost white
Content (%) [1, 8]: 99.32% and 99.27% and 99.23%
Loss on drying (%) [1, 8]: 2.28% and 2.31% and 2.29%
Related substances (%) Other 2 [1, 8]: 0.163% and 0.168% and 0.169%
Related substances (%) Other 3 [1, 8]: 0.260% and 0.264% and 0.265%
Related substances (%) Other 4 [1, 8]: 0.062% and 0.063%
Related substances In total (%) [1, 8]: 0.606% and 0.623% and 0.627%
Appearance [1, 9]: almost white
Content (%) [1, 9]: 99.18% and 99.26% and 99.24%
Loss on drying (%) [1, 9]: 2.30% and 2.29% and 2.28%
Related substances (%) Other 2 [1, 9]: 0.179% and 0.174%
Related substances (%) Other 3 [1, 9]: 0.279% and 0.270% and 0.272%
Related substances (%) Other 4 [1, 9]: 0.065% and 0.067%
Related substances In total (%) [1, 9]: 0.660% and 0.643% and 0.647%
Appearance [1, 10]: almost white
Content (%) [1, 10]: 99.17% and 99.10% and 99.14%
Loss on drying (%) [1, 10]: 2.32% and 2.30% and 2.31%
Related substances (%) Other 2 [1, 10]: 0.178% and 0.187% and 0.185%
Related substances (%) Other 3 [1, 10]: 0.278% and 0.292% and 0.286%
Related substances (%) Other 4 [1, 10]: 0.070% and 0.074% and 0.072%
Related substances In total (%) [1, 10]: 0.666% and 0.697% and 0.685%
Appearance [1, 11]: almost white
Content (%) [1, 11]: 99.13% and 99.05% and 99.02%
Loss on drying (%) [1, 11]: 2.32% and 2.31%
Related substances (%) Other 2 [1, 11]: 0.190% and 0.194% and 0.196%
Related substances (%) Other 3 [1, 11]: 0.299% and 0.301% and 0.302%
Related substances (%) Other 4 [1, 11]: 0.076% and 0.074% and 0.078%
Related substances In total (%) [1, 11]: 0.713% and 0.719% and 0.732%
Appearance [1, 12]: almost white
Content (%) [1, 12]: 98.85% and 98.74% and 98.80%
Loss on drying (%) [1, 12]: 2.34% and 2.38% and 2.36%
Related substances (%) Other 2 [1, 12]: 0.219% and 0.222% and 0.218%
Related substances (%) Other 3 [1, 12]: 0.303% and 0.309% and 0.306%
Related substances (%) Other 4 [1, 12]: 0.092% and 0.095% and 0.091%
Related substances In total (%) [1, 12]: 0.770% and 0.787% and 0.772%
Crystal form examination by microscope ([1]; at the end of 12, 24, 36 and 48 months, 18±2° C., relative humidity 60±10%): single lamellar crystal
Stability on storage ([1]; within 48 months, stored in the cool and dark place): does not change obviously
Residual solvent Ethyl acetate (%) ([2]; listed as Sample obtained in Example 1): 0.254%

O=C(/C=C/c1ccc(O)c(O)c1)O[C@@H]1C[C@](O)(C(=O)O)C[C@@H](O)[C@H]1O [Raw material of Example 1, 3-O-caffeoylquinnic acid]
Residual solvent Ethyl acetate (%) [2]: 1.764%

O=C(/C=C/c1ccc(O)c(O)c1)O[C@@H]1C[C@](O)(C(=O)O)C[C@@H](O)[C@H]1O [Raw material of Example 2, 3-O-caffeoylquinnic acid]
Residual solvent Ethyl acetate (%) [2]: 2.314%

O=C(/C=C/c1ccc(O)c(O)c1)O[C@@H]1C[C@](O)(C(=O)O)C[C@@H](O)[C@H]1O [Sample obtained in Example 2, 3-O-caffeoylquinnic acid]
Residual solvent Ethyl acetate (%) [2]: 0.252%
